target: PDE V (Homo sapiens, UniProt O76074); assay: PDE V inhibition (PDE V IC50); type: biochemical

| IC50 | Compound |
| --- | --- |
| 15 to 100 nM | CCn1c(=O)c2c(nc(NC3CCCCC3)n2Cc2ccc(C(=O)O)cc2)n(CC)c1=O [Compound 98] |
| 15 to 100 nM | CCCn1c(=O)n(CC)c(=O)c2c1nc(NC1CCCCC1)n2Cc1ccccc1F [Compound 173] |
| 15 to 100 nM | CCn1c(=O)c2c(nc(NC3CCCCC3)n2Cc2ccccc2F)n(CC)c1=O [Compound 165] |
| 15 to 100 nM | COc1ccc(Cn2c(NC3CCC3)nc3c2c(=O)n(C)c(=O)n3C)cc1 [Compound 42] |
| 5 to 10 nM | COc1ccc(Cn2c(=O)c3c(nc(NC4CCCCC4)n3Cc3ccc(OC)cc3)n(C)c2=O)cc1 [Compound 21] |
| 15 to 100 nM | COc1ccc(Cn2c(NC3(CO)CCCC3)nc3c2c(=O)n(C)c(=O)n3C)cc1 [Compound 13] |
| 15 to 100 nM | CCn1c(=O)c2c(nc(NC3CCCC3)n2Cc2ccc(OC)cc2)n(CC(C)C)c1=O [Compound 38] |
| 10 to 15 nM | Cn1c(=O)c2c(nc(NC3CCCCC3)n2Cc2ccc(O)c(Cl)c2)n(C)c1=O [Compound 161] |
| 15 to 100 nM | CCn1c(=O)c2c(nc(NC3(CO)CC=CC3)n2Cc2ccc(OC)cc2)n(C)c1=O [Compound 25] |
| 15 to 100 nM | COc1ccc(Cn2c(NC3(CO)CCCC3)nc3c2c(=O)n(C)c(=O)n3CC(C)C)cc1 [Compound 18] |
| ≤ 5 nM | CCn1c(=O)c2c(nc(NC3CCCC3)n2Cc2ccc(O)cc2)n(CC)c1=O [Compound 63] |
| 10 to 15 nM | CCn1c(=O)[nH]c2nc(NC3CCCCC3)n(Cc3ccc(O)cc3)c2c1=O [Compound 94] |
| 5 to 10 nM | CCn1c(=O)c2c(nc(NC3CCOCC3)n2Cc2ccc(S(N)(=O)=O)c(Br)c2)n(CC)c1=O [Compound 190] |
| 15 to 100 nM | Cn1c(=O)c2c(nc(NC3CC4CCC3C4)n2Cc2ccc(O)cc2)n(C)c1=O (centres unmarked) [Compound 77] |
| 15 to 100 nM | CCn1c(=O)c2c(nc(NC3CCS(=O)(=O)CC3)n2Cc2ccc(OC)c(Br)c2)n(CC)c1=O [Compound 194] |
| ≤ 5 nM | CCCn1c(=O)n(CC)c(=O)c2c1nc(NC1CCCCC1)n2Cc1ccc(O)c(C)c1 [Compound 178] |
| 5 to 10 nM | CCn1c(=O)c2c(nc(NC3CCCCC3)n2Cc2ccc(S(N)(=O)=O)c(Br)c2)n(CC)c1=O [Compound 180] |
| 15 to 100 nM | CCn1c(=O)c2c(nc(N[C@@H]3CCC[C@H]3O)n2Cc2ccc(S(N)(=O)=O)cc2)n(CC)c1=O [Compound 126] |
| 5 to 10 nM | Cn1c(=O)c2c(nc(NC3CCC3)n2Cc2ccc(O)cc2)n(C)c1=O [Compound 66] |
| ≤ 5 nM | CCn1c(=O)c2c(nc(NC3CCSCC3)n2Cc2ccc(OC)c(Br)c2)n(CC)c1=O [Compound 198] |
| 5 to 10 nM | CCn1c(=O)c2c(nc(NC3CCCCC3)n2Cc2ccc(S(N)(=O)=O)c(Cl)c2)n(CCO)c1=O [Compound 183] |
| 15 to 100 nM | Cn1c(=O)c2c(nc(NC3CCCC3)n2Cc2ccccc2)n(C)c1=O [Compound 15] |
| 10 to 15 nM | CCn1c(=O)c2c(nc(N[C@H]3CC[C@H](O)CC3)n2Cc2ccc(OC)c(Br)c2)n(CC)c1=O [Compound 125] |
| 10 to 15 nM | Cn1c(=O)c2c(nc(NC3CCCCC3)n2Cc2cc3c(cc2Cl)OCO3)n(C)c1=O [Compound 160] |
| 15 to 100 nM | CCn1c(=O)c2c(nc(NC3CCCCC3)n2Cc2ccc(S(N)(=O)=O)c(Br)c2)n(CCO)c1=O [Compound 184] |
| 15 to 100 nM | COc1ccc(Cn2c(NC3CCCC3)nc3c2c(=O)n(C)c(=O)n3CC(C)C)cc1 [Compound 30] |
| 15 to 100 nM | CCn1c(=O)c2c(nc(N[C@@H]3CCC[C@H]3O)n2Cc2ccc(O)c(C)c2)n(CCO)c1=O [Compound 113] |

| IC50 | Compound |
| --- | --- |
| 15 to 100 nM | CCCn1c(=O)n(CC)c(=O)c2c1nc(NC1CCCCC1)n2Cc1ccc(OC)c(C)c1 [Compound 176] |
| 10 to 15 nM | CCn1c(=O)c2c(nc(NC3CCCC3O)n2Cc2ccc(OC)cc2)n(CC(C)C)c1=O (centres unmarked) [Compound 40] |
| 15 to 100 nM | COc1ccc(Cn2c(NC3CCCCC3)nc3c2c(=O)n(C)c(=O)n3CC(C)C)cc1 [Compound 31] |
| ≤ 5 nM | Cn1c(=O)c2c(nc(NC3CCCCC3)n2Cc2ccc3c(c2)OCO3)n(C)c1=O [Compound 142] |
| 15 to 100 nM | CCn1c(=O)c2c(nc(N[C@@H]3CCCC[C@H]3O)n2Cc2ccc(OC)c(Br)c2)n(CCO)c1=O [Compound 185] |
| 5 to 10 nM | Cn1c(=O)c2c(nc(NC3CCCC3)n2Cc2ccc(O)cc2)n(C)c1=O [Compound 36] |
| ≤ 5 nM | CCn1c(=O)c2c(nc(NC3CCCCC3)n2Cc2ccc(OC)cc2)n(CC)c1=O [Compound 61] |
| ≤ 5 nM | CCn1c(=O)c2c(nc(NC3CCOCC3)n2Cc2ccc(S(N)(=O)=O)c(Cl)c2)n(CC)c1=O [Compound 191] |
| 10 to 15 nM | COc1ccc(Cn2c(NC3(CO)CC=CC3)nc3c2c(=O)n(C)c(=O)n3C)cc1 [Compound 34] |
| 15 to 100 nM | CCn1c(=O)c2c(nc(NC3CCCCC3)n2Cc2ccc(OC)c(C)c2)n(CC)c1=O [Compound 166] |
| 15 to 100 nM | Cn1c(=O)c2c(nc(NC3CCCCCC3)n2Cc2ccc(O)cc2)n(C)c1=O [Compound 69] |
| ≤ 5 nM | COc1ccc(Cn2c(=O)c3c(nc(NC4(CO)CC=CC4)n3Cc3ccc(OC)cc3)n(C)c2=O)cc1 [Compound 67] |
| 10 to 15 nM | CCn1c(=O)c2c(nc(NC3CCCCC3)n2Cc2ccc(OC)cc2)n(C)c1=O [Compound 23] |
| 15 to 100 nM | CCCn1c(=O)n(CC)c(=O)c2c1nc(NC1CCCCC1)n2Cc1ccc(S(C)(=O)=O)cc1 [Compound 121] |
| 5 to 10 nM | COc1ccc(Cn2c(=O)c3c(nc(NC4CCCC4)n3Cc3ccc(OC)cc3)n(C)c2=O)cc1 [Compound 22] |
| 15 to 100 nM | COc1ccc(Cn2c(NC3CCCCC3)nc3c2c(=O)[nH]c(=O)n3C)cc1 [Compound 70] |
| 15 to 100 nM | COc1cccc(Cn2c(NC3CCCCC3)nc3c2c(=O)n(C)c(=O)n3C)c1 [Compound 141] |
| 15 to 100 nM | CCn1c(=O)c2c(nc(NC3CCCC3O)n2Cc2ccccc2)n(CC(C)C)c1=O (centres unmarked) [Compound 58] |
| 15 to 100 nM | Cn1c(=O)[nH]c(=O)c2c1nc(NC1CCCCC1)n2Cc1ccc(O)cc1 [Compound 71] |
| 5 to 10 nM | CCCn1c(=O)n(CC)c(=O)c2c1nc(NC1CCCCC1)n2Cc1ccc(O)c(Cl)c1 [Compound 172] |
| 15 to 100 nM | COc1ccc(Cn2c(N[C@@H]3CCc4ccccc43)nc3c2c(=O)n(C)c(=O)n3C)cc1 [Compound 85] |
| 15 to 100 nM | CCn1c(=O)c2c(nc(NC3CCCCC3)n2Cc2ccccc2)n(CC(C)C)c1=O [Compound 56] |
| 10 to 15 nM | CCn1c(=O)c2c(nc(NC3CCCCC3)n2Cc2ccccc2)n(CC)c1=O [Compound 29] |
| 10 to 15 nM | Cn1c(=O)c2c(nc(NC3CCCCC3)n2Cc2ccccc2F)n(C)c1=O [Compound 136] |
| 15 to 100 nM | CCn1c(=O)c2c(nc(NC3CCS(=O)(=O)CC3)n2Cc2ccc(OC)c(Cl)c2)n(CC)c1=O [Compound 193] |
| 5 to 10 nM | CCn1c(=O)c2c(nc(NC3CCCCC3)n2Cc2ccc(OC)c(C)c2)n(CCO)c1=O [Compound 110] |
| 10 to 15 nM | CCn1c(=O)c2c(nc(NC3CCCCC3)n2Cc2cc3c(cc2Cl)OCO3)n(CCO)c1=O [Compound 108] |

| IC50 | Compound |
| --- | --- |
| 10 to 15 nM | CCn1c(=O)c2c(nc(NC3CCCCC3)n2Cc2ccc(O)c(C)c2)n(CCO)c1=O [Compound 112] |
| ≤ 5 nM | CCn1c(=O)c2c(nc(N[C@@H]3CCC[C@H]3O)n2Cc2ccc(OC)c(Br)c2)n(CCO)c1=O [Compound 114] |
| 15 to 100 nM | CCn1c(=O)c2c(nc(NC3(CO)CCCC3)n2Cc2ccc(OC)cc2)n(CC(C)C)c1=O [Compound 41] |
| 5 to 10 nM | CCn1c(=O)c2c(nc(NC3CCCCC3)n2Cc2ccc(O)cc2)n(C)c1=O [Compound 78] |
| ≤ 5 nM | CCCn1c(=O)n(CC)c(=O)c2c1nc(NC1CCCCC1)n2Cc1cccc(O)c1 [Compound 177] |
| 10 to 15 nM | CCn1c(=O)[nH]c2nc(NC3CCCC3)n(Cc3ccc(OC)cc3)c2c1=O [Compound 93] |
| 5 to 10 nM | Cn1c(=O)[nH]c(=O)c2c1nc(NC1CCCC1)n2Cc1ccc(O)cc1 [Compound 68] |
| 10 to 15 nM | COc1ccc(Cn2c(NC3CCCCC3)nc3c2c(=O)n(C)c(=O)n3C)cc1C [Compound 144] |
| 15 to 100 nM | CCn1c(=O)c2c(nc(N[C@@H]3CCC[C@H]3O)n2Cc2cc(Br)c3c(c2)CCO3)n(CCO)c1=O [Compound 128] |
| ≤ 5 nM | CCn1c(=O)c2c(nc(NC3CCCC3)n2Cc2ccc(OC)cc2)n(CC)c1=O [Compound 60] |
| 5 to 10 nM | CCn1c(=O)[nH]c2nc(NC3CCCC3)n(Cc3ccc(O)cc3)c2c1=O [Compound 95] |
| 5 to 10 nM | CCn1c(=O)c2c(nc(NC3CCCCC3)n2Cc2ccc(C(=O)OC)cc2)n(CC)c1=O [Compound 99] |
| 15 to 100 nM | CCn1c(=O)c2c(nc(NC3CCCCC3)n2Cc2cccc(Cl)c2)n(CC)c1=O [Compound 120] |
| 5 to 10 nM | Cc1ccc(Cn2c(NC3CCCCC3)nc3c2c(=O)n(C)c(=O)n3C)cc1 [Compound 132] |
| 5 to 10 nM | CCCn1c(=O)n(CC)c(=O)c2c1nc(NC1CCCCC1)n2Cc1ccc(OC)c(Cl)c1 [Compound 171] |
| 15 to 100 nM | Cn1c(=O)c2c(nc(NC3CCCCC3)n2Cc2ccc(F)cc2)n(C)c1=O [Compound 138] |
| 10 to 15 nM | COc1ccc(Cn2c(NC3CCCCC3)nc3c2c(=O)n(C)c(=O)n3C)cc1 [Compound 33] |
| 15 to 100 nM | COc1ccc(Cn2c(NC3CCCC3)nc3c2c(=O)n(C)c(=O)n3C)cc1 [Compound 32] |
| ≤ 5 nM | CCn1c(=O)c2c(nc(NC3CCCCC3)n2Cc2ccc(O)cc2)n(CC(C)C)c1=O [Compound 65] |
| ≤ 5 nM | CCn1c(=O)c2c(nc(NC3CCSCC3)n2Cc2ccc(OC)c(Cl)c2)n(CC)c1=O [Compound 197] |
| 5 to 10 nM | CCn1c(=O)c2c(nc(N[C@@H]3CCC[C@H]3O)n2Cc2ccc(O)c(Cl)c2)n(CCO)c1=O [Compound 115] |
| 5 to 10 nM | CCn1c(=O)c2c(nc(NC3CCC(F)(F)CC3)n2Cc2ccc(OC)c(Br)c2)n(CC)c1=O [Compound 199] |
| 15 to 100 nM | CCn1c(=O)c2c(nc(NC3CCCCC3)n2Cc2ccc(C(F)(F)F)cc2)n(CC(C)C)c1=O [Compound 96] |
| 15 to 100 nM | CCn1c(=O)c2c(nc(N[C@@H]3CCC[C@H]3O)n2Cc2ccc(S(N)(=O)=O)c(Cl)c2)n(CC)c1=O [Compound 181] |
| 15 to 100 nM | CCn1c(=O)c2c(nc(NC3CCCC3)n2Cc2ccccc2)n(CC(C)C)c1=O [Compound 55] |
| 10 to 15 nM | CCn1c(=O)c2c(nc(NC3CCCCC3)n2Cc2ccc(OC)cc2)n(CC(C)C)c1=O [Compound 39] |

Source: patent publication US20070037831A1, “Methods of using PDE 5 inhibitors for the treatment of congestive heart failure” (priority 2004, published 2007)
